# Measurements as given in patent US10829520B2, “Beta-hairpin peptidomimetics” (POLYPHOR AG, priority 2015, dated 2020).
# Where a SMILES comes first, the peptide text is derived from it. Bridges are numbered along the chain shown (N, C = ends). [ ]: non-standard residue; d: D form. Cha = N[C@@H](CC1CCCCC1)C(=O)O; aThr = C[C@H](O)[C@H](N)C(=O)O; Tle = CC(C)(C)[C@H](N)C(=O)O; dDab = NCC[C@@H](N)C(=O)O; dPip = O=C(O)[C@H]1CCCCN1; Nle = CCCC[C@H](N)C(=O)O; Orn = NCCC[C@H](N)C(=O)O; Dab = NCC[C@H](N)C(=O)O; Dap = NC[C@H](N)C(=O)O
# Assays:
# Format in all cases: cell-based
# [1] = tested on: Acinetobacter baumannii 872842; settings: 872842
# [2] = tested on: Acinetobacter baumannii DSM 30008; settings: DSM 30008
# Procedure, shortened: (§1)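 Antibacterial activity is measured as MIC (μg/mL) by standard CLSI microdilution. Inocula of about 10^6 CFU/mL in MH-II broth meet two-fold peptide dilutions in medium with 0.002% Polysorbate 80, and growth is scored visually after 18-20 hours at 35° C.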
# Escherichia coli 926415 = settings: 926415
# [3] = tested on: Escherichia coli ATCC 25922; settings: ATCC 25922
# Procedure, shortened: as §1
# [4] = tested on: Klebsiella pneumoniae 968733; settings: 968733
# [5] = tested on: Klebsiella pneumoniae SSI #3010; settings: SSI #3010
# Procedure, shortened: as §1
# [6] = tested on: Pseudomonas aeruginosa ATCC 27853; settings: ATCC 27853
# Procedure, shortened: as §1
# [7] = tested on: human red blood cells (hRBC); experiment: Hemolysis of human red blood cells; settings: red cells of human, 1 h, 100 μg/mL
# Procedure, shortened: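 Percent hemolysis = OD540 of peptide-treated supernatant relative to the 2.5% Triton X-100 (100%) control, PBS containing 0.001% acetic acid defining 0%. Peptides tested at 100 μg/mL against 20% (v/v) washed human RBC, 1 h, 37 °C, 300 rpm.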
structure (smiles),measurement,setting,value
CCCC[C@@H]1NC(=O)[C@@H]2CCCN2C(=O)[C@H]2CCCN2C(=O)[C@H](CO)NC(=O)[C@H](CO)NC(=O)[C@H](C(C)(C)C)NC(=O)[C@@H](NC(=O)[C@@H](N)Cc2c[nH]c3ccccc23)CSSC[C@@H](C(=O)N[C@H](Cc2ccc(O)cc2)C(=O)N[C@@H](CCN)C(=O)N[C@@H](CCN)C(=O)N[C@H]2CCNC(=O)[C@H]([C@@H](C)O)NC(=O)[C@H](CCN)NC(=O)[C@H](CCN)NC(=O)[C@H](CC(C)C)NC(=O)[C@@H](Cc3ccccc3)NC(=O)[C@H](CCN)NC2=O)NC(=O)[C@H](Cc2ccc(O)cc2)NC(=O)[C@H](CO)NC1=O [Ex. 109] (H-WC[Tle]SS[dP]P[Nle]SYC[dY][Dab][Dab][Dab][Dab][dF]L[Dab][Dab]T; disulfide 2-11; lactam 15-C),Acinetobacter baumannii 872842 MIC,[1],0.5 µg/mL
same,Acinetobacter baumannii DSM 30008 MIC,[2],0.5 µg/mL
same,Escherichia coli 926415 MIC,Escherichia coli 926415,0.5 µg/mL
same,Escherichia coli ATCC 25922 MIC,[3],0.25 µg/mL
same,Klebsiella pneumoniae 968733 MIC,[4],1 µg/mL
same,Klebsiella pneumoniae SSI #3010 MIC,[5],1 µg/mL
same,Pseudomonas aeruginosa ATCC 27853 MIC,[6],1 µg/mL
same,Hemolysis at 100 μg/mL,[7],<1%
CC(=O)N[C@@H](Cc1c[nH]c2ccccc12)C(=O)N[C@H]1CSSC[C@@H](C(=O)N[C@@H](CCCN)C(=O)N[C@H](CCN)C(=O)N[C@@H](CCN)C(=O)N[C@H]2CCNC(=O)[C@H]([C@@H](C)O)NC(=O)[C@H](CCN)NC(=O)[C@H](CCN)NC(=O)[C@H](CC(C)C)NC(=O)[C@@H](Cc3ccccc3)NC(=O)[C@H](CCN)NC2=O)NC(=O)[C@H](Cc2ccc(O)cc2)NC(=O)[C@H](CN)NC(=O)[C@H](Cc2ccccc2)NC(=O)[C@H](CC(C)C)NC(=O)[C@H]2CCCN2C(=O)[C@H](CO)NC(=O)[C@H](C)NC(=O)[C@H](C(C)(C)C)NC1=O [Ex. 110] (Ac-WC[Tle]AS[dP]LF[Dap]YC[Orn][dDab][Dab][Dab][Dab][dF]L[Dab][Dab]T; disulfide 2-11; lactam 15-C),Acinetobacter baumannii 872842 MIC,[1],0.25 µg/mL
same,Acinetobacter baumannii DSM 30008 MIC,[2],0.25 µg/mL
same,Escherichia coli 926415 MIC,Escherichia coli 926415,0.25 µg/mL
same,Escherichia coli ATCC 25922 MIC,[3],0.5 µg/mL
same,Klebsiella pneumoniae 968733 MIC,[4],2 µg/mL
same,Klebsiella pneumoniae SSI #3010 MIC,[5],0.5 µg/mL
same,Pseudomonas aeruginosa ATCC 27853 MIC,[6],1 µg/mL
same,Hemolysis at 100 μg/mL,[7],2%
CC(=O)N[C@@H](Cc1c[nH]c2ccccc12)C(=O)N[C@H]1CSSC[C@@H](C(=O)N[C@@H](CCCN)C(=O)N[C@H](C(=O)N[C@@H](CCN)C(=O)N[C@H]2CCNC(=O)[C@H]([C@@H](C)O)NC(=O)[C@H](CCN)NC(=O)[C@H](CCN)NC(=O)[C@H](CC(C)C)NC(=O)[C@@H](Cc3ccccc3)NC(=O)[C@H](CCN)NC2=O)[C@@H](C)O)NC(=O)[C@H](Cc2ccc(O)cc2)NC(=O)[C@H](CO)NC(=O)[C@H](CC(C)C)NC(=O)[C@@H]2CCCN2C(=O)[C@H]2CCCN2C(=O)[C@H](CO)NC(=O)[C@H](C)NC(=O)[C@H](Cc2c[nH]c3ccccc23)NC1=O [Ex. 111] (Ac-WCWAS[dP]PLSYC[Orn]T[Dab][Dab][Dab][dF]L[Dab][Dab]T; disulfide 2-11; lactam 15-C),Acinetobacter baumannii 872842 MIC,[1],0.25 µg/mL
same,Acinetobacter baumannii DSM 30008 MIC,[2],0.25 µg/mL
same,Escherichia coli 926415 MIC,Escherichia coli 926415,0.25 µg/mL
same,Escherichia coli ATCC 25922 MIC,[3],0.25 µg/mL
same,Klebsiella pneumoniae 968733 MIC,[4],1 µg/mL
same,Klebsiella pneumoniae SSI #3010 MIC,[5],1 µg/mL
same,Pseudomonas aeruginosa ATCC 27853 MIC,[6],1 µg/mL
same,Hemolysis at 100 μg/mL,[7],2%
CC(=O)N[C@@H](Cc1c[nH]c2ccccc12)C(=O)N[C@H]1CSSC[C@@H](C(=O)N[C@@H](CCCN)C(=O)N[C@@H](CCN)C(=O)N[C@@H](CCN)C(=O)N[C@H]2CCNC(=O)[C@H]([C@@H](C)O)NC(=O)[C@H](CCN)NC(=O)[C@H](CCN)NC(=O)[C@H](CC(C)C)NC(=O)[C@@H](Cc3ccccc3)NC(=O)[C@H](CCN)NC2=O)NC(=O)[C@H](Cc2ccc(O)cc2)NC(=O)[C@H](CO)NC(=O)[C@H](CC(C)C)NC(=O)[C@@H]2CCCN2C(=O)[C@H]2CCCN2C(=O)[C@H](CO)NC(=O)[C@@H](C)NC(=O)[C@H](C(C)(C)C)NC1=O [Ex. 112] (Ac-WC[Tle][dA]S[dP]PLSYC[Orn][Dab][Dab][Dab][Dab][dF]L[Dab][Dab]T; disulfide 2-11; lactam 15-C),Acinetobacter baumannii 872842 MIC,[1],1 µg/mL
same,Acinetobacter baumannii DSM 30008 MIC,[2],1 µg/mL
same,Escherichia coli 926415 MIC,Escherichia coli 926415,1 µg/mL
same,Escherichia coli ATCC 25922 MIC,[3],1 µg/mL
same,Klebsiella pneumoniae 968733 MIC,[4],0.5 µg/mL
same,Klebsiella pneumoniae SSI #3010 MIC,[5],0.5 µg/mL
same,Pseudomonas aeruginosa ATCC 27853 MIC,[6],4 µg/mL
same,Hemolysis at 100 μg/mL,[7],1%
CC(=O)N[C@@H](Cc1c[nH]c2ccccc12)C(=O)N[C@H]1CSSC[C@@H](C(=O)N[C@@H](CCCN)C(=O)N[C@H](C(=O)N[C@@H](CCN)C(=O)N[C@H]2CCNC(=O)[C@H]([C@@H](C)O)NC(=O)[C@H](CCN)NC(=O)[C@H](CCN)NC(=O)[C@H](CC(C)C)NC(=O)[C@@H](Cc3ccccc3)NC(=O)[C@H](CCN)NC2=O)[C@@H](C)O)NC(=O)[C@H](CC2CCCCC2)NC(=O)[C@H](Cc2c[nH]cn2)NC(=O)[C@H](CC(C)C)NC(=O)[C@@H]2CCCN2C(=O)[C@H]2CCCN2C(=O)[C@H]([C@H](C)O)NC(=O)[C@H](C)NC(=O)[C@H](C(C)(C)C)NC1=O [Ex. 113] (Ac-WC[Tle]A[aThr][dP]PLH[Cha]C[Orn]T[Dab][Dab][Dab][dF]L[Dab][Dab]T; disulfide 2-11; lactam 15-C),Acinetobacter baumannii 872842 MIC,[1],0.25 µg/mL
same,Acinetobacter baumannii DSM 30008 MIC,[2],1 µg/mL
same,Escherichia coli 926415 MIC,Escherichia coli 926415,0.5 µg/mL
same,Escherichia coli ATCC 25922 MIC,[3],1 µg/mL
same,Klebsiella pneumoniae 968733 MIC,[4],4 µg/mL
same,Klebsiella pneumoniae SSI #3010 MIC,[5],2 µg/mL
same,Pseudomonas aeruginosa ATCC 27853 MIC,[6],1 µg/mL
same,Hemolysis at 100 μg/mL,[7],5%
CC(C)C[C@@H]1NC(=O)[C@@H](Cc2ccccc2)NC(=O)[C@H](CCN)NC(=O)[C@@H](NC(=O)[C@H](CCN)NC(=O)[C@@H](NC(=O)[C@H](CCN)NC(=O)[C@@H]2CSSC[C@H](NC(=O)[C@@H](N)Cc3c[nH]c4ccccc34)C(=O)N[C@@H](C(C)(C)C)C(=O)N[C@@H](C)C(=O)N[C@@H](CO)C(=O)N3CCCC[C@@H]3C(=O)N3CCC[C@H]3C(=O)N[C@@H](CC(C)C)C(=O)N[C@@H](CO)C(=O)N[C@@H](Cc3ccc(O)cc3)C(=O)N2)[C@@H](C)O)CCNC(=O)[C@H]([C@@H](C)O)NC(=O)[C@H](CCN)NC(=O)[C@H](CCN)NC1=O [Ex. 114] (H-WC[Tle]AS[dPip]PLSYC[Dab]T[Dab][Dab][Dab][dF]L[Dab][Dab]T; disulfide 2-11; lactam 15-C),Acinetobacter baumannii 872842 MIC,[1],0.125 µg/mL
same,Acinetobacter baumannii DSM 30008 MIC,[2],0.5 µg/mL
same,Escherichia coli 926415 MIC,Escherichia coli 926415,0.0625 µg/mL
same,Escherichia coli ATCC 25922 MIC,[3],0.125 µg/mL
same,Klebsiella pneumoniae 968733 MIC,[4],0.5 µg/mL
same,Klebsiella pneumoniae SSI #3010 MIC,[5],0.25 µg/mL
same,Pseudomonas aeruginosa ATCC 27853 MIC,[6],0.5 µg/mL
same,Hemolysis at 100 μg/mL,[7],6%
CC(=O)N[C@@H](Cc1c[nH]c2ccccc12)C(=O)N[C@H]1CSSC[C@@H](C(=O)N[C@@H](CCN)C(=O)N[C@@H](CCN)C(=O)N[C@@H](CCN)C(=O)N[C@H]2CCNC(=O)[C@H]([C@@H](C)O)NC(=O)[C@H](CCN)NC(=O)[C@H](CCN)NC(=O)[C@H](CC(C)C)NC(=O)[C@@H](Cc3ccccc3)NC(=O)[C@H](CCN)NC2=O)NC(=O)[C@H](Cc2ccc(O)cc2)NC(=O)[C@H]([C@@H](C)O)NC(=O)[C@H](CC(C)C)NC(=O)[C@H](CCCNC(=N)N)NC(=O)[C@H]2CCCN2C(=O)[C@H](C(C)C)NC(=O)[C@H]([C@@H](C)O)NC(=O)[C@H](C(C)C)NC1=O [Ex. 115] (Ac-WCVTV[dP]RLTYC[Dab][Dab][Dab][Dab][Dab][dF]L[Dab][Dab]T; disulfide 2-11; lactam 15-C),Acinetobacter baumannii 872842 MIC,[1],0.5 µg/mL
same,Acinetobacter baumannii DSM 30008 MIC,[2],0.5 µg/mL
same,Escherichia coli 926415 MIC,Escherichia coli 926415,0.5 µg/mL
same,Escherichia coli ATCC 25922 MIC,[3],0.5 µg/mL
same,Klebsiella pneumoniae 968733 MIC,[4],1 µg/mL
same,Klebsiella pneumoniae SSI #3010 MIC,[5],0.5 µg/mL
same,Pseudomonas aeruginosa ATCC 27853 MIC,[6],0.5 µg/mL
same,Hemolysis at 100 μg/mL,[7],1%
CC(=O)N[C@@H](Cc1c[nH]c2ccccc12)C(=O)N[C@H]1CSSC[C@@H](C(=O)N[C@@H](CCCN)C(=O)N[C@H](C(=O)N[C@@H](CCN)C(=O)N[C@H]2CCNC(=O)[C@H]([C@@H](C)O)NC(=O)[C@H](CCN)NC(=O)[C@H](CCN)NC(=O)[C@H](CC(C)C)NC(=O)[C@@H](Cc3ccccc3)NC(=O)[C@H](CCN)NC2=O)[C@@H](C)O)NC(=O)[C@H](Cc2ccc(O)cc2)NC(=O)CNC(=O)[C@H](CC(C)C)NC(=O)[C@@H]2CCCN2C(=O)[C@H]2CCCN2C(=O)[C@H](CO)NC(=O)[C@H](CN)NC(=O)[C@H](C(C)(C)C)NC1=O [Ex. 117] (Ac-WC[Tle][Dap]S[dP]PLGYC[Orn]T[Dab][Dab][Dab][dF]L[Dab][Dab]T; disulfide 2-11; lactam 15-C),Acinetobacter baumannii 872842 MIC,[1],0.125 µg/mL
same,Acinetobacter baumannii DSM 30008 MIC,[2],0.25 µg/mL
same,Escherichia coli 926415 MIC,Escherichia coli 926415,0.25 µg/mL
same,Escherichia coli ATCC 25922 MIC,[3],0.5 µg/mL
same,Klebsiella pneumoniae 968733 MIC,[4],2 µg/mL
same,Klebsiella pneumoniae SSI #3010 MIC,[5],1 µg/mL
same,Pseudomonas aeruginosa ATCC 27853 MIC,[6],2 µg/mL
same,Hemolysis at 100 μg/mL,[7],<1%
